Experimental data published in patent US6358706B1, “DNA encoding human alpha1G-C T-Type calcium channel” (Ortho-McNeil Pharmaceutical, Inc., priority 1999, dated 2002).
Like-named read-outs stand apart in the source and are kept apart here.

Legend:
[1] = biological target: T1, human calcium channel alpha1G-c (Homo sapiens, UniProt O43497); experiment: two-electrode voltage clamp of Xenopus oocytes expressing human calcium channel alpha1G-c; format: cell-based; conditions: for block of peak human alpha1G-c currents / effect on peak human alpha1G-c currents: 100 μM; for block of peak current: 200 μM, clamped at −100 mV between test pulses
T1 construct: first reported cloning of a full length DNA molecule encoding the; expressed in transfected cells; host or cells: Xenopus laevis oocytes injected with cRNA transcribed from pGEM HE
T1 sequence (O43497 1-2273 isoform O43497-6): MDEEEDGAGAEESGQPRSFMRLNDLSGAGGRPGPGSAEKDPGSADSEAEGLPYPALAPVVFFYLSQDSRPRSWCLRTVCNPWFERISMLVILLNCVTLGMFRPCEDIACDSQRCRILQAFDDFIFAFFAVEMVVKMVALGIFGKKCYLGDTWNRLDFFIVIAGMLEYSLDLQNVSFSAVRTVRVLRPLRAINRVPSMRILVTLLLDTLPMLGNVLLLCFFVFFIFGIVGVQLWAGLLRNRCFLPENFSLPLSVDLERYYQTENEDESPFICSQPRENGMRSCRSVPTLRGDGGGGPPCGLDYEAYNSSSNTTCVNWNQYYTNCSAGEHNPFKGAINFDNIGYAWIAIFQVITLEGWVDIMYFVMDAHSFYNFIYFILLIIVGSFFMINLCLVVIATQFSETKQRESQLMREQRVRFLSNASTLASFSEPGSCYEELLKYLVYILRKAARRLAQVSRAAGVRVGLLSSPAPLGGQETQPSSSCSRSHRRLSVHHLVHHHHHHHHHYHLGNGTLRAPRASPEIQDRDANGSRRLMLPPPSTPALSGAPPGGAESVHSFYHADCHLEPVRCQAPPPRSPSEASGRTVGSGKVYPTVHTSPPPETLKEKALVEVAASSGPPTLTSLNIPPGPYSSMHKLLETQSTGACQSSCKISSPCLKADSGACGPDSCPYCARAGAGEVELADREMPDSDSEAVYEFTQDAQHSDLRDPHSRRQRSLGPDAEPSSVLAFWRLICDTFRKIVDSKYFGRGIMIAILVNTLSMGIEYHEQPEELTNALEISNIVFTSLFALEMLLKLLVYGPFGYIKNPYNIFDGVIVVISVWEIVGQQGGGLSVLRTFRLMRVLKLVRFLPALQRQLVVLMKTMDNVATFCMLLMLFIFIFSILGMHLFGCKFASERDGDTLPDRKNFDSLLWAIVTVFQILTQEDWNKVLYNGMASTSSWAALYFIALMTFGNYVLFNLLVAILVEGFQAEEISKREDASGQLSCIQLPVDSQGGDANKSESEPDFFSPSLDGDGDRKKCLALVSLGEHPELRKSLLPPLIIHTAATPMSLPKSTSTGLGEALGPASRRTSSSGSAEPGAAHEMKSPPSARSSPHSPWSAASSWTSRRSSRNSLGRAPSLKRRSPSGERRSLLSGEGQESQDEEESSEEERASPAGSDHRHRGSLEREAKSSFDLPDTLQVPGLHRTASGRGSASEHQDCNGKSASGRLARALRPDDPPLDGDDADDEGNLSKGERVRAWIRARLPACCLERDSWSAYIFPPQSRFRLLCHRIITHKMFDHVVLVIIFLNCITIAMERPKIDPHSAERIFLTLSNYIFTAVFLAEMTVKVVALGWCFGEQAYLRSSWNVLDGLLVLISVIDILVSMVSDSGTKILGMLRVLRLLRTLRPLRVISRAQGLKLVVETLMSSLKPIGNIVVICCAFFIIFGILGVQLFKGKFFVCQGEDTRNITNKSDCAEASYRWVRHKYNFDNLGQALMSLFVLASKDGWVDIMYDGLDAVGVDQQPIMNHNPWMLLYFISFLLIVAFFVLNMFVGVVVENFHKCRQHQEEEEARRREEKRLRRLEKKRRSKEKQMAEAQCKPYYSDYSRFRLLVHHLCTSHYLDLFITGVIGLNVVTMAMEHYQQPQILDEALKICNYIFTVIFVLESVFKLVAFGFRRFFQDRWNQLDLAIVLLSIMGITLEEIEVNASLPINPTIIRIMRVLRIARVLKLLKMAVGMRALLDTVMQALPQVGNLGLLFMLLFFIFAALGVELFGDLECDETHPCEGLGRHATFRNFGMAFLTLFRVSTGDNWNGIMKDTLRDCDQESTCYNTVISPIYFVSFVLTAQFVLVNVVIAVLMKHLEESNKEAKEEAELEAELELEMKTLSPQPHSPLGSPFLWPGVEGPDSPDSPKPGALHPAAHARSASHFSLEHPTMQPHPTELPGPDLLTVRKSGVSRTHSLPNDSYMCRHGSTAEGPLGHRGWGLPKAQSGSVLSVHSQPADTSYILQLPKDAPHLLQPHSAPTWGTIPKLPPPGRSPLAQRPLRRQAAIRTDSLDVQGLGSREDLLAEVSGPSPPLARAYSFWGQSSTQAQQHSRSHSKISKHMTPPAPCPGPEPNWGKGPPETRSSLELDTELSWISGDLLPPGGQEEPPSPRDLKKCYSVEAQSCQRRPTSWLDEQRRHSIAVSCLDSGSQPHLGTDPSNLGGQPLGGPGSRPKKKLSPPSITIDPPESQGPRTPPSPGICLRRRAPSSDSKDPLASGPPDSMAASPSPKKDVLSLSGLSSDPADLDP
Description: Xenopus laevis oocytes were prepared and injected using standard methods previously described and known in the art (Fraser, S. P. et al. (1993)). Ovarian lobes from adult female Xenopus laevis (Nasco, Fort Atkinson, Wis.) were teased apart, rinsed several times in nominally Ca-free saline containing: 82.5 mM NaCl, 2.5 mM KCl, 1 mM MgCl2, 5 mM HEPES, adjusted to pH 7.0 with NaOH (OR-2), and gently shaken in OR-2 containing 0.2% collagenase Type 1 (ICN Biomedicals, Aurora, Ohio) for 2-5 hours. When approximately 50% of the follicular layers were removed, Stage V and VI oocytes were selected and rinsed in media consisting of 75% OR-2 and 25% ND-96. The ND-96 contained: 100 mM NaCl, 2 mM KCl, 1 mM MgCl2, 1.8 mM CaCl2, 5 mM HEPES, 2.5 mM Na pyruvate, gentamicin (50 ug/ml), adjusted to pH 7.0 with NaOH. […] The synthesized cRNA was precipitated with ammonium acetate and isopropanol, and resuspended in 50 μl nuclease-free water. cRNA was quantified using formaldehyde gels (1% agarose, 1×MOPS , 3% formaldehyde) against RNA markers (Gibco BRL, 0.24-9.5 Kb).
Oocytes were injected with 50 nl of the human calcium channel alpha1G-c cRNA (about 600 ng). Control oocytes were injected with 50 nl of water. Oocytes were incubated in ND-96 before analysis for expression of the human calcium channel alpha1G-c. Incubations and collagenase digestion were carried out at room temperature. Injected oocytes were maintained in 48 well cell culture clusters (Costar; Cambridge, Mass.) at 18° C. Whole cell agonist-induced currents were measured 3-6 days after injection with a conventional two-electrode voltage clamp (GeneClamp500, Axon Instruments, Foster City, Calif.) using standard methods previously described and known in the art (Dascal, N. (1987)). The microelectrodes were filled with 3 M KCl, which had resistances of 1 and 2 MΩ. Cells were continuously perfused with ND96 at 2-5 mi/min at room temperature unless indicated. In some experiments, cells were bathed in a 40 mM Ba saline containing (in mM): 40 BaCl2, 2 KCl, 36 TEA-Cl, 5 4-AP and 5 HEPES, pH 7.6. Membrane voltage was clamped at −100 mV unless indicated.
Oocytes were bathed in ND96,

[2] = test system: T type currents from guinea pig or rat ventrobasal thalamic neurons; set-up: maximal block: dose or concentration left out as unconfirmed; conditions: cited from earlier work
[3] = test system: LVCC in hippocampal CA3 neurons; conditions: 250 μM or 1 mM; cited from earlier work
[4] = test system: T-type calcium channels from dorsal root ganglion neurons; conditions: neurons from one-day-old rats, cited from earlier work
L-type current = conditions: neurons from one-day-old rats; cited from earlier work
human alpha1H = biological target: T2, human alpha1H (Homo sapiens, UniProt O95180); conditions: cited from earlier work; for IC50: expressed in oocytes
T2 construct: host or cells: oocytes
T2 sequence (O95180 whole entry): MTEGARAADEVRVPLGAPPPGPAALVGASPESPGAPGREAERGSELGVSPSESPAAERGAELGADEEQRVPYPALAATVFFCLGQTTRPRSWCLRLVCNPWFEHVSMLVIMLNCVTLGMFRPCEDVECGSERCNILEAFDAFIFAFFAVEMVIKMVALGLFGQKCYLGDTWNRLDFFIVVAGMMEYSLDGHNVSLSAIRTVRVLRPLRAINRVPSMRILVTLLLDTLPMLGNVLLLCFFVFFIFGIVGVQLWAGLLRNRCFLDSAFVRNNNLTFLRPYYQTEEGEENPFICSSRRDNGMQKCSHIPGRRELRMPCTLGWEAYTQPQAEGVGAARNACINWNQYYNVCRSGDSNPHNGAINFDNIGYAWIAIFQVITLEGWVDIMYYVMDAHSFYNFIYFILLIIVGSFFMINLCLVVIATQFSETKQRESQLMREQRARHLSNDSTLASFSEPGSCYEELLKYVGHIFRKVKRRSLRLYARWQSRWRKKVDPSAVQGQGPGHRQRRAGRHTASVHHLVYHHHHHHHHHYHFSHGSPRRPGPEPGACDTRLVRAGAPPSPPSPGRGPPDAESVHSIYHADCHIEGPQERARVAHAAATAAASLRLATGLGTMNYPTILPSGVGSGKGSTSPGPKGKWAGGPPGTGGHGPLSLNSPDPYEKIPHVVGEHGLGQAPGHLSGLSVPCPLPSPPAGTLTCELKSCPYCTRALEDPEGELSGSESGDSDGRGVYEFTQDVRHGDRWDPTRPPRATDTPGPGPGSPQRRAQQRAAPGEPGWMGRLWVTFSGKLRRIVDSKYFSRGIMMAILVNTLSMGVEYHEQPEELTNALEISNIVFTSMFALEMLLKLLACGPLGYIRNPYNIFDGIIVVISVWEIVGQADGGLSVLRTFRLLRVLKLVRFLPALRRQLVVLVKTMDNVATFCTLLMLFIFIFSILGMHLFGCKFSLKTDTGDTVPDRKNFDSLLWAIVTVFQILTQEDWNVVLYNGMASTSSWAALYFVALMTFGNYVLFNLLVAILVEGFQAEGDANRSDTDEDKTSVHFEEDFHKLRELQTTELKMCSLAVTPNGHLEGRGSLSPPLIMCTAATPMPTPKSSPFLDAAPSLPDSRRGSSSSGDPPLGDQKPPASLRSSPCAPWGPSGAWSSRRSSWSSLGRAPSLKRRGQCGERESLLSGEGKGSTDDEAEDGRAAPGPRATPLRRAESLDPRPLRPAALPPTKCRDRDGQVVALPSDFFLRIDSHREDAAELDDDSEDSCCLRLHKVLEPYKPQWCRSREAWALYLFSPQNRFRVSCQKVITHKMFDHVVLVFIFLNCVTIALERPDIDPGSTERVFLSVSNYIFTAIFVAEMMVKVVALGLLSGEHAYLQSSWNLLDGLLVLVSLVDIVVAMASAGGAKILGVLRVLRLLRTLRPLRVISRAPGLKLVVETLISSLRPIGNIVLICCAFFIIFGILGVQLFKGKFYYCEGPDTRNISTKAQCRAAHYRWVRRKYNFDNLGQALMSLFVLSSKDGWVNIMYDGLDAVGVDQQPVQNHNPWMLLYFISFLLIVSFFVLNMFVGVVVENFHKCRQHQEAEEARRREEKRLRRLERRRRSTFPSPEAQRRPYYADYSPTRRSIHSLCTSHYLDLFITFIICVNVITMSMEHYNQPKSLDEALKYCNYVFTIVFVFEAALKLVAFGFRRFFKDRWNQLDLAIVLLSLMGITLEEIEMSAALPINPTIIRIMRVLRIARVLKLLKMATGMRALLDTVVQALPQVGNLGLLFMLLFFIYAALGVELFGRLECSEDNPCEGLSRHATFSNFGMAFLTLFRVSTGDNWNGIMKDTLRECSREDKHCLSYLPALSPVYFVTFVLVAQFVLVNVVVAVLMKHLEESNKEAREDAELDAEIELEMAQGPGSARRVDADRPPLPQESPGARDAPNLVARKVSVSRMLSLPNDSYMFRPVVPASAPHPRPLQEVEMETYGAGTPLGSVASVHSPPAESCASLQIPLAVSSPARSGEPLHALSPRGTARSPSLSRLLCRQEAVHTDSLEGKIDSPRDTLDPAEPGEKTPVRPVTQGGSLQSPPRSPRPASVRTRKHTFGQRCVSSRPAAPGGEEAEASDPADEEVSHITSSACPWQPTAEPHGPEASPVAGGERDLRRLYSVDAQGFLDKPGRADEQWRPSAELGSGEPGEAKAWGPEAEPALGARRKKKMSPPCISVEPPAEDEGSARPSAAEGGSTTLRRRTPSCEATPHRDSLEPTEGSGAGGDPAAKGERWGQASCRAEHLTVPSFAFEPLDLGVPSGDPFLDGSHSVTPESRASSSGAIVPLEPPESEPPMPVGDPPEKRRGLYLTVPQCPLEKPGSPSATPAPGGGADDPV

mouse alpha1G = conditions: cited from earlier work
T-type calcium channels = conditions: range over cell types; read-out: EC50's depending on the cell type; cited from earlier work

Structure (SMILES): CCC1(C)CC(=O)NC1=O (stereo not shown) [ethosuximide]
- reversible block of peak currents ([1]; 600 μM, −100 mV between voltage pulses, ND96 and Ba2+ salines similar): 26+/−−3%
- sensitivity of human alpha1G-c to block ([1]; expressed in oocytes): sensitive
- effect on T-currents ([2]; in 25% of the TCs tested): no effect
- sensitivity of all components of the LVCC [3]: insensitive
- maximal block [4]: 100%
- Kd ([4]; read-out: Kd for T-current): 7 µM
- Kd (L-type current): 15 µM
- block of human alpha1H currents (human alpha1H; 300 μM): ~7%
- sensitivity (human alpha1H): insensitive

Structure (SMILES): O=C(O)c1cc([N+](=O)[O-])ccc1NCCCc1ccccc1 [NPPB, 5-Nitro-2-(3-phenylpropylamino)benzoic acid]
- block of human alpha1G-c currents ([1]; 20 μM): 22+/−6%
- block of peak human alpha1G-c currents [1]: 55+/−7%
- block of peak current [1]: 89+/−7%
- sensitivity of human alpha1G-c to block ([1]; expressed in oocytes): blocked halpha1G-c currents

Structure (SMILES): COCC(=O)O[C@]1(CCN(C)CCCc2nc3ccccc3[nH]2)CCc2cc(F)ccc2[C@@H]1C(C)C [mibefradil, (1S,2S)-2-[2-[[3-(1H-benzimidazol-2-yl)propyl]methyl-amino]ethyl]-6-fluoro-1-isopropyl-1,2,3,4-tetrahydronaphthalen-2-yl methoxyacetate]
- IC50 (mouse alpha1G; most prominent (low affinity) site): ~0.4 µM
- maximal block [2]: ~40%
- IC50 ([2]; majority of T type currents): ~500 µM

Structure (SMILES): N=C(N)NC(=O)c1nc(Cl)c(N)nc1N [amiloride]
- block of peak currents [1]: 23+/−4%
- sensitivity of human alpha1G-c to block [1]: sensitive
- IC50 (human alpha1H): ~20 µM
- EC50 (T-type calcium channels): ≥ 50 µM

Structure (SMILES): O=S(=O)(O)c1cc(N=C=S)ccc1C=Cc1ccc(N=C=S)cc1S(=O)(=O)O [DIDS, 4,4′-diisothiocyanatostilbene-2.2′-disulfonic acid]
- block of peak human alpha1G-c currents [1]: 16+/−13%
- effect on peak human alpha1G-c currents [1]: no effect

Structure (SMILES): O=C(O)c1cccnc1Nc1cccc(C(F)(F)F)c1 [niflumic acid]
- block of peak human alpha1G-c currents [1]: 0+/−2%
- effect on peak human alpha1G-c currents [1]: no effect

Structure (SMILES): [Cd+2] [Cd^2+]
- block of peak human alpha1G-c currents [1]: 44+/−9%

Structure (SMILES): O=C(O)c1c2ccccc2cc2ccccc12 [9-AC, anthracene-9-carboxylic acid]
- block of peak human alpha1G-c currents [1]: 30+/−3%

Structure (SMILES): [Cl][Ni][Cl] [NiCl2]
- block of peak current [1]: 25+/−6%
- current blocked relative to 200 μM ([1]; 1 mM, same cell): about twice the current blocked by 200 μM Ni^2+
- sensitivity of human alpha1G-c to block ([1]; expressed in oocytes): relatively insensitive
- sensitivity (mouse alpha1G; as opposed to other T-type channels): very low sensitivity
- IC50 (human alpha1H): ~6 µM
